Data reported in publication PMC13195669, “GPR3 Ligands Discovered through Combined Virtual and Conformational Biosensor-Based Screening” (Journal of the American Chemical Society, 2026).

Tests used:
GPR3 [1] = target: T1, GPR3 (Homo sapiens, UniProt P46089, INS231ASEIGTGFPFDPHYVEVLGERMHYVDVGPRDGTPVLFLHGNPTSSYVWRNIIPHVAPTHRCIAPDLIGMGKSDKPDLGYFFDDHVRFMDAFIEALGLEEVVLVIHDWGSALGFHWAKRNPERVKGIAFMEFIRPIPTWDEWPEFARETFQAFRTTDVGRKLIIDQNVFIEGTLPMGVVRPLTEVEMDHYREPFLNPVDREPLWRFPNELPIAGEPANIVALVEEYMDWLHQSPVPKLLFWGTPGVLIPPAEAARLAKSLPNCKAVDIGPGLNLLQEDNPDLIGSEIARWLSTLEISGGS); assay: BRET-based conformational GPR3 biosensor (GPR3-HaloTag/Nluc) in HEK293A cells; type: cell-based; conditions: for BRET response of GPR3 biosensor (direction, words): HEK293A
T1 construct: ligated to the full-length C-terminus; expressed in transfected cells; some experiments transient
From the text: To develop a conformational GPR3 biosensor that can be used in a microtiter well plate format, we employed the intramolecular BRET design previously validated for several GPCRs. − The BRET donor NanoLuc was fused to the receptor’s full-length C-terminus and the self-labeling protein tag, HaloTag, was inserted into GPR3′s third intracellular loop between amino acids Arg231 and His232 (Figure a; sequence in Figure S1). […]
Plasmids and molecular cloning […]
Plasmids encoding the conformational biosensors α2AAR- and β2AR-HaloTag/Nluc9 and the Gs heterotrimer dissociation sensor10 were previously described. The expression plasmid encoding N-terminally HA-tagged GPR3 (cat. no.
#GPR003TN00) on a pcDNA3.1+ vector was obtained from the cDNA resource center (cdna.org). The Nluc and HaloTag in-serts were amplified with overhanging restriction sites from β2AAR- HaloTag/Nluc and ligated to the full-length C-terminus or inserted into icl3 of GPR3, respectively, to obtain the conformational biosensor GPR3-HaloTag/Nluc. Point mutants of GPR3-HaloTag/Nluc were generated using the GeneArt Site-directed Mutagenesis System (Thermo Fisher Scientific). All con-structs were verified by sequencing (Eurofins genomics). […]
serum albumin (BSA) were obtained from Sigma Aldrich (Merck KGaA). Dulbecco's Modified Eagle's Medium (DMEM), Dul- […]
Diphenyleneiodonium chloride (DPI) and AF64394 were purchased from Tocris (Bio -Techne). The TMB (3, 3', 5, 5' tetramethyl benzidine) substrate reagent set was […]
were obtained in a single kit from Promega (cat. no. N1662). D-luciferin-sodium and the S1PR1 agonist III were from Med-ChemExpress. The Rluc substrate coelenterazine 400a was from NanoLight Technology (cat. no. 340 -10). White -wall, white - bottomed 96 -well, black -wall, black bottomed and transparent 96 -well microtiter plates were from Brand.
HEK293A cells were used for transient transfection and grown in Dulbecco’s modified Eagle’s medium (DMEM) supplemented with 2 mM glutamine, 10 % fetal calf serum, streptomycin (0.1 mg/mL), and penicillin (100 U/mL) at 37 °C with 5 % CO2. For the generation of stable GPR3 -HaloTag/Nluc cells, HEK293A cells grown in T75 flasks were transfected at a confluence of 40 – […]
Absence of mycoplasma contamination was routinely
(§1) Transient transfection and plating
Resuspended cells (300,000 cells/mL) were transfected in suspension with a total of 1 μg DNA/mL suspension using PEI (1 mg/ml stock solution; 3 μL PEI solution per μg DNA). […]
Cells mixed with the transfection reagents were seeded onto poly-D-lysine–precoated, 96-well plates and grown for 48 h at 37 °C with 5 % CO2. Stable α2AAR-, β2AR- or GPR3-HaloTag/Nluc expressing cells were seeded 24 h before the experi-ment at a density of 800,000 cells/mL into white 96-well plates. To monitor changes in BRET in with conformational GPCR […]
experiment. White plates were used for BRET and luminescence measurements, black plates for FRET experiments and trans-parent plates for absorbance-based quantification of receptor surface expression levels.

GPR3 [2] = target: T2, GPR3 (Homo sapiens, UniProt P46089); assay: FRET/BRET cAMP biosensor in HEK293A cells cotransfected with GPR3; type: cell-based; conditions: cAMP biosensor; pcDNA vs GPR3 transfected HEK293A
T2 construct: host or cells: HEK293A, transient
From the text: With the first GPR3 ligands identified by using a conformational readout in our hands, we next wanted to understand whether these compounds could have been detected in a cAMP-based assay, which has been used extensively in the past to screen for GPR3 ligands. We therefore tested rac-VH1/52, VH2/93 and VH3/115 in cells expressing a cAMP biosensor.
3 Effect of rac-VH1/52, VH2/93 and VH3/115 on GPR3-dependent cAMP production. (a–c) Vehicle-corrected BRET changes induced by rac-VH1/52 (a), VH2/93 (b) or VH3/115 (c) in HEK293A cells transiently transfected with a cAMP BRET sensor along with pcDNA or GPR3. […] Statistical significance was tested using Two-Way ANOVA followed by Sidak multiple comparison (*: […]; **: p < 0.01). […]
Plasmids and molecular cloning
The H187-EPAC-FRET sensor7 was kindly provided by K. Jalink (The Netherlands Cancer Institute, Amsterdam, The Nether-lands). The BRET-based cAMP sensor CAMYEL8 was kindly provided by Laura Humphrys (University of Regensburg, Regens-burg, Germany). Plasmids encoding the conformational biosensors α2AAR- and β2AR-HaloTag/Nluc9 and the Gs heterotrimer dissociation sensor10 were previously described. The expression plasmid encoding N-terminally HA-tagged GPR3 (cat. no.
#GPR003TN00) on a pcDNA3.1+ vector was obtained from the cDNA resource center (cdna.org). The Nluc and HaloTag in-serts were amplified with overhanging restriction sites from β2AAR- HaloTag/Nluc and ligated to the full-length C-terminus or inserted into icl3 of GPR3, respectively, to obtain the conformational biosensor GPR3-HaloTag/Nluc. Point mutants of GPR3-HaloTag/Nluc were generated using the GeneArt Site-directed Mutagenesis System (Thermo Fisher Scientific). All con-structs were verified by sequencing (Eurofins genomics).
Poly-D-lysine, polyethylenimin hydrochloride (linear; average Mn 20 000; PEI) , […], LPA , forskolin, NECA and bovine serum albumin (BSA) were obtained from Sigma Aldrich (Merck KGaA). Dulbecco's Modified Eagle's Medium (DMEM), Dul-becco's Phosphate -Buffered Saline (DPBS) and G -418 (Geneticin) were from Gibco. Diphenyleneiodonium chloride (DPI) and AF64394 were purchased from Tocris (Bio -Techne). The TMB (3, 3', 5, 5' tetramethyl benzidine) substrate reagent set was from BioLegend. The Nluc substrate furimazine and the red fluorescen t HaloTag dye, HaloTag® NanoBRET® 618 Ligand, were obtained in a single kit from Promega (cat. no. N1662). D-luciferin-sodium and the S1PR1 agonist III were from Med-ChemExpress. The Rluc substrate coelenterazine 400a was from NanoLight Technology (cat. no. 340 -10). White -wall, white - bottomed 96 -well, black -wall, black bottomed and transparent 96 -well microtiter plates were from Brand.
HEK293A cells were used for transient transfection and grown in Dulbecco’s modified Eagle’s medium (DMEM) supplemented with 2 mM glutamine, 10 % fetal calf serum, streptomycin (0.1 mg/mL), and penicillin (100 U/mL) at 37 °C with 5 % CO2. […]
as §1
Resuspended cells (300,000 cells/mL) were transfected in suspension with a total of 1 μg DNA/mL suspension using PEI (1 mg/ml stock solution; 3 μL PEI solution per μg DNA). For cAMP experiments with FRET- or BRET-based sensors, resuspended cells were transfected with 500 ng pcDNA, wildtype GPR3 or GPR3-HaloTag/Nluc constructs along with 500 ng of the FRET-or BRET-based cAMP sensor per mL cell suspension. For cAMP experiments with GloSensor™ 22F, resuspended cells were transfected with 250 ng pcDNA or GPCR along with 500 ng of a 1:1 mix of pcDNA with the GloSensor™ 22F per mL cell sus-pension. Cells mixed with the transfection reagents were seeded onto poly-D-lysine–precoated, 96-well plates and grown for 48 h at 37 °C with 5 % CO2. Stable α2AAR-, β2AR- or GPR3-HaloTag/Nluc expressing cells were seeded 24 h before the experi-ment at a density of 800,000 cells/mL into white 96-well plates. To monitor changes in BRET in with conformational GPCR […]

β2AR = assay: β2AR-HaloTag/Nluc conformational biosensor (negative control) in HEK293A cells; type: cell-based, human; conditions: β2AR-HaloTag/Nluc as negative control; HEK293A stable
Description: Initially, all 93 molecules were tested for activity at the GPR3 biosensor at a concentration of 1 μM (Figure a). […] Of the five compounds that emerged from the virtual screen, three–hereafter referred to as virtual hit 1–3, VH1/2/3–were selected for in-house chemical synthesis (compounds 52, 93, and 115; cf. Scheme , Figure S6), providing compounds of ≥99% purity for hit validation (NMR spectra: Figures S7–S142; HPLC purity: Figures S143–S218). For VH1, the racemic mix, rac-VH1/52, was synthesized and used for testing. Compounds 52, VH2/93, and VH3/115 (Figure S6) were then validated with the GPR3 biosensor including β2AR-HaloTag/Nluc as a negative control.
BRET-based GPCR conformational sensor experiments
Cells expressing the conformational GPCR biosensors were grown for 24 h (stable cells) or 48 h (transiently transfected cells) in white 96-well plates and washed with 100 µl of HBSS. After washing, cells were incubated for 2 minutes with a 1/1000 solution of the furimazine stock solution (Promega; cat. no. N1662). Three baseline BRET reads were recorded and averaged prior to the addition of serial dilutions of ligands or veh icle control and subsequent BRET reads. All experiments were con-ducted at 37 °C. BRE T donor emission was quantified with a 470/80 nm monochromator. BRET acceptor emission was quan-tified using a 660/100 nm monochromator. Experiments were carried out using a CLARIOstar plate reader. […]
FRET and BRET ratios were defined as acceptor emission/donor emission. […] To quantify ligand-induced changes ΔFRET and ΔBRET were calculated for each well as a percent over basal ([(Ratiostim − Ratiobasal)/Ratiobasal] × 100). […]
Data from FRET/BRET experiments were fitted using a three-parameter fit. Z-factors expressing the high-throughput suita-bility were calculated with the following equation: […]
Commercially available chemicals and solvents were purchased from standard commercial suppliers (Merck (Darmstadt, Ger-many), Sigma-Aldrich (Munich, Germany), Acros Organics (Geel, Belgium), Alfa Aesar (Karlsruhe, Germany), abcr (Karlsruhe, Germany), BLD Pharmatech (Reinbek, Germany) or TCI Europe (Zwijndrecht, Belgium) and were used as received. Deuter-ated solvents for nuclear magnetic resonance (1H NMR and 13C NMR) spectra were purchased from Deutero GmbH (Kastel-laun, Germany). All reactions carried out with dry solvents were accomplished in dry flasks under nitrogen or argon atmos-phere. For the preparation of buffers, HPLC eluents, and stock solutions millipore water was used. […] The reactions were monitored by thin layer chromatography (TLC) on Merck silica gel 60 F254 aluminium sheets and spots were visualized under UV light at 254 nm, by potassium permanganate or ninhydrin staining. […]

T1 sequence (P46089 with tags, fused parts or gaps with the stated changes): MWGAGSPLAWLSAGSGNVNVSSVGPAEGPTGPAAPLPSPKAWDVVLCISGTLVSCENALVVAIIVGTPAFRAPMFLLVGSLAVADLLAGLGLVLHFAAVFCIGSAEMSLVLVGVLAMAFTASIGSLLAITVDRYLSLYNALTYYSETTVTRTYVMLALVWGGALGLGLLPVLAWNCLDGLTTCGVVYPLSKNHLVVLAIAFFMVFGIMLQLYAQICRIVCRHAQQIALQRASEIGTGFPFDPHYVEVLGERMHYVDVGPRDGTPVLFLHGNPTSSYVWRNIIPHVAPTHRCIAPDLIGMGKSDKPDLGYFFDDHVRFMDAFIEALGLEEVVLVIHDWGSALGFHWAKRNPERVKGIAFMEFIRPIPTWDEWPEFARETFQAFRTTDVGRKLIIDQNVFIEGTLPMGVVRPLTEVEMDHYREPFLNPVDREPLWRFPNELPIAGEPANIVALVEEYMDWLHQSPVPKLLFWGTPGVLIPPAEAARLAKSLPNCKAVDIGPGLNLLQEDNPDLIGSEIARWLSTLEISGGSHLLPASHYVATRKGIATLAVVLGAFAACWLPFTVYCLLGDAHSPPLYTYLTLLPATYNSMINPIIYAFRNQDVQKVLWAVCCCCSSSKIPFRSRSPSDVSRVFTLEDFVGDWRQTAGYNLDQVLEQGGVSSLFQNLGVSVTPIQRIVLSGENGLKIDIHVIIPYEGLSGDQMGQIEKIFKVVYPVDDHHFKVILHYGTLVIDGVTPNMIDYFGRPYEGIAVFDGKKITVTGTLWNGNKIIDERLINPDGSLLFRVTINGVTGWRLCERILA
T2 sequence (P46089 whole entry): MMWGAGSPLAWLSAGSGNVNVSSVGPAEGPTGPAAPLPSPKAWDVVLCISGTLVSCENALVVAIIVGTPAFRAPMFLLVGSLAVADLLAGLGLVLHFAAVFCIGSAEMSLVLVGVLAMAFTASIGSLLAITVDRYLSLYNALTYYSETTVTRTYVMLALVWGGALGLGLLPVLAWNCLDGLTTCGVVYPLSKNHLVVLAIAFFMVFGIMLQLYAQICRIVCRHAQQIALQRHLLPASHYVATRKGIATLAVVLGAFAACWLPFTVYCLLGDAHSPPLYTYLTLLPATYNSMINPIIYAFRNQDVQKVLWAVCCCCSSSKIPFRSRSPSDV

Row | EC50 (GPR3 [1]; transiently expressing HEK293A cells, read-out: EC50 of BRET increase at conformational GPR3 biosensor) [nM] | SMILES | BRET response of GPR3 biosensor (direction, words) (GPR3 [1]) | GPR3-dependent change in cAMP (GPR3 [2]) | specificity of conformational response for GPR3 vs β2AR-HaloTag/Nluc (β2AR)
1 | 161 | CC(C)Oc1cc(Cl)ccc1CNc1cc(-c2ccccc2)nc2ncnn12 [AF64394, reference compound] | time- and ligand-concentration-dependent increase in BRET | concentration-dependent reduction of cAMP | –
2 | – | CCCCCCCC/C=C\CCCCCCCC(=O)NCCO [OEA, reference compound] | concentration-dependent decreases in BRET | – | –
3 | – | O=C(C1COc2ccccc2O1)N1CCC(Cn2cncn2)(C2CCCCC2)CC1 (stereo not shown) [compound 93] | – | to a much lesser extent | concentration-dependent and GPR3-specific conformational changes
4 | – | CCCCCCCC/C=C\CCCCCCCC(N)=O [oleamide, reference compound] | concentration-dependent decreases in BRET | – | –
